# Measured values taken from US8063234B2, “Substituted 7-sulfanylmethyl-, 7-sulfinylmethyl- and 7-sulfonylmethylindoles and the use thereof” (Bayer Schering Pharma Aktiengesellschaft, priority 2008, dated 2011).
# Biological target: T1, CYP3A4 (Homo sapiens, UniProt P08684)
# T1 construct: human liver microsomes (pool from various individuals); from tissue; host or cells: human liver microsomes (pool from various individuals)
# Assay: Assay to assess irreversible CYP3A4 inhibition (mechanism-based inhibition) in human liver microsomes
# Type: in vitro ADME
# Conditions: 2-20 μM, preincubation 0-50 min, 6β-hydroxytestosterone formation
# Source text: 8. Assay to Assess Irreversible CYP3A4 Inhibition
# Cytochrom P450 enzyme inhibition, especially irreversible enzyme inhibition, also referred to as mechanism-based inhibition (MBI), is an unwanted metabolic property of a substance which may, on concurrent administration of other medicaments, lead to considerable drug interactions. Criteria for the presence of an irreversible inhibition are a time-, concentration- and cofactor- (nicotinamide adenine dinucleotide phosphate, NADPH) dependent inhibition. To this end, the compounds of the invention are incubated in vitro with human liver microsomes, the influence on the CYP3A4 activity and the metabolic degradation of the novel active ingredient is determined, and the prototypical parameters kinact, Ki and the partition ratio r are ascertained therefrom.
# The compounds of the invention are incubated with concentrations of 2-20 μM. To this end, stock solutions of the active ingredients with a concentration of 0.2-2 mM are prepared in acetonitrile and then pipetted with a 1:100 dilution into the incubation mixture. The liver microsomes are incubated in 50 mM potassium phosphate buffer (pH 7.4) with and without NADPH-generating system consisting of 1 mM NADP^+, 5 mM glucose 6-phosphate and 1 unit of glucose 6-phosphate dehydrogenase, at 37° C. After defined preincubation times of 0-50 min, aliquots are removed from these mixtures, diluted 1:25 in a new incubation, and incubated in the presence of testosterone and new NADPH-generating system again for 20 min. These incubation mixtures are stopped with acetonitrile (final concentration about 30% v/v), and the protein is removed by centrifugation at about 15 000×g. The samples stopped in this way are either analyzed directly or stored at −20° C. until analyzed.
# The analysis takes place by high performance liquid chromatography with mass spectrometry detection (LC-MS). The formation of 6β-hydroxytestosterone as measure of CYP3A4 activity, and the test substance still remaining is quantified. The parameters kinact, Ki and the partition ratio r are determined therefrom so as to assess the novel active ingredients in relation to MBI.
# T1 sequence (P08684 whole entry): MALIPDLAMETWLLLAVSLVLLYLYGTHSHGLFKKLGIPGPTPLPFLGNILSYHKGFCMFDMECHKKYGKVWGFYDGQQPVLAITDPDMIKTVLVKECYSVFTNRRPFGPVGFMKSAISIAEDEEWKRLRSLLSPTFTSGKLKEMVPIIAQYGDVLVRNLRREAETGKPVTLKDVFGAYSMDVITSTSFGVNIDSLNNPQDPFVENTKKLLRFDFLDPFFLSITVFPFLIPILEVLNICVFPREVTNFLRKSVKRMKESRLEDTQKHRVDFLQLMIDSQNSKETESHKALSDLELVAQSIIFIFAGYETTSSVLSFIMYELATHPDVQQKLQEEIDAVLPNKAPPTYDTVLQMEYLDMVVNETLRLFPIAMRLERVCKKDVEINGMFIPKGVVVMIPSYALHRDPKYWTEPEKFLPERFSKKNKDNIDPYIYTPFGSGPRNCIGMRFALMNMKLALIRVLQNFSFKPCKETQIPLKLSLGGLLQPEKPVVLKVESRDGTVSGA
row,SMILES,Partition ratio r
1,"CS(=O)(=O)Cc1cccc2c(C(CCC#N)c3ccc(C(F)(F)F)cc3)c[nH]c12 (single isomer, unassigned) [Example 56-1, 4-{7-[(Methylsulfonyl)methyl]-1H-indol-3-yl}-4-[4-(trifluoromethyl)phenyl]butanonitrile]",100
2,"CS(=O)(=O)Cc1cc(F)cc2c(C(c3ccc(C(F)(F)F)cc3F)C3CC3C#N)c[nH]c12 (single isomer, unassigned) [Example 271-1-1, 2-({5-Fluoro-7-[(methylsulfonyl)methyl]-1H-indol-3-yl}[2-fluoro-4-(trifluoro-methyl)phenyl]methyl)cyclopropanecarbonitrile]",>200
3,"CS(=O)(=O)Cc1cc(F)cc2c(C(c3ccc(Cl)cc3F)C3CC3C#N)c[nH]c12 (single isomer, unassigned) [Example 273-1-2, 2-[(4-Chloro-2-fluorophenyl){5-fluoro-7-[(methylsulfonyl)methyl]-1H-indol-3-yl}methyl]cyclopropanecarbonitrile]",>200
4,"CS(=O)(=O)Cc1cc(F)cc2c(C(c3ccc(Cl)cc3)C3CC3C#N)c[nH]c12 (single isomer, unassigned) [Example 277-1-1, 2-[(4-Chlorophenyl){5-fluoro-7-[(methylsulfonyl)methyl]-1H-indol-3-yl}methyl]cyclopropane-carbonitrile]",>200
5,"CS(=O)(=O)Cc1cccc2c(C(CCC#N)c3ccc4sccc4c3)c[nH]c12 (centres unmarked) [Example 73, 4-(1-Benzothiophen-5-yl)-4-{7-[(methylsulfonyl)methyl]-1H-indol-3-yl}butanonitrile]",>500
6,"CS(=O)(=O)Cc1cccc2c(C3(C4CC4)CCc4cc(F)ccc43)c[nH]c12 (centres unmarked) [Example 107, 3-(1-Cyclopropyl-5-fluoro-2,3-dihydro-1H-inden-1-yl)-7-[(methylsulfonyl)methyl]-1H-indole]",>400
7,"CS(=O)(=O)Cc1cccc2c(C(c3ccc(F)cc3)c3ccc(C(F)(F)F)cc3)c[nH]c12 (centres unmarked) [Example 113, 3-{(4-Fluorophenyl) [4-(trifluoromethyl)phenyl]methyl}-7-[(methylsulfonyl)methyl]-1H-indole]",>500
8,"CCC(CCO)(c1ccc(Cl)cc1)c1c[nH]c2c(CS(C)(=O)=O)cccc12 (centres unmarked) [Example 147, 3-(4-Chlorophenyl)-3-{7-[(methylsulfonyl)methyl]-1H-indol-3-yl}pentan-1-ol]",90
9,"CS(=O)(=O)Cc1cccc2c(C(CCC#N)c3ccc4c(c3)OC(F)(F)O4)c[nH]c12 (centres unmarked) [Example 169, 4-(2,2-Difluoro-1,3-benzodioxol-5-yl)-4-{7-[(methylsulfonyl)methyl]-1H-indol-3-yl}butanonitrile]",>500
10,"CCC(CCC#N)(c1ccc(Cl)cc1)c1c[nH]c2c(CS(C)(=O)=O)cccc12 (centres unmarked) [Example 172, 4-(4-Chlorophenyl)-4-{7-[(methylsulfonyl)methyl]-1H-indol-3-yl}hexanonitrile]",120

# The remaining lines, values ahead:
row,Partition ratio r,SMILES
1,220,"CS(=O)(=O)Cc1cccc2c(C(CCC#N)c3ccc(Cl)cc3F)c[nH]c12 (single isomer, unassigned) [Example 59-1, 4-(4-Chloro-2-fluorophenyl)-4-{7-[(methylsulfonyl)methyl]-1H-indol-3-yl}butanonitrile]"
2,250,"CS(=O)(=O)Cc1cccc2c(C(c3ccc(F)cc3)c3ccc(Cl)cc3F)c[nH]c12 (single isomer, unassigned) [Example 118-1, 3-[(4-Chloro-2-fluorophenyl)(4-fluorophenyl)methyl]-7-[(methylsulfonyl)methyl]-1H-indole]"
3,>200,"CS(=O)(=O)Cc1cccc2c(C(c3ccc(Cl)cc3)C3CC3(F)F)c[nH]c12 (single isomer, unassigned) [Example 261-1, 3-[(4-Chlorophenyl)(2,2-difluorocyclopropyl)methyl]-7-[(methylsulfonyl)methyl]-1H-indole]"
4,>200,"CS(=O)(=O)Cc1cc(F)cc2c(C(c3ccc(F)cc3Cl)C3CC3C#N)c[nH]c12 (single isomer, unassigned) [Example 266-1, 2-[(2-Chloro-4-fluorophenyl){5-fluoro-7-[(methylsulfonyl)methyl]-1H-indol-3-yl}methyl]cyclopropanecarbonitrile]"
